The NIST ThermoML archive (doi:10.1016/j.tca.2005.04.019)
± gives the expanded uncertainty stated by the source.

How the values were obtained:
[1] = DTA
[2] = Molar enthalpy of transition or fusion; conditions: DSC

| SMILES | Triple point temperature ([1]; Crystal 2) | Molar enthalpy of transition or fusion ([2]; Crystal 2) | Triple point temperature ([1]; Crystal 3) | Molar enthalpy of transition or fusion ([2]; Crystal 3) | Triple point temperature ([1]; Crystal 4) | Molar enthalpy of transition or fusion ([2]; Crystal 4) |
| --- | --- | --- | --- | --- | --- | --- |
| CCCCCCCCCC[NH2+]CCCCCCCCCC.[Br-] [N-decyldecan-1-aminium bromide] | 330.1 ± 3 K | 9.08 ± 0.478 kcal/mol |  |  |  |  |
| CCCCCCCCCC[NH2+]CCCCCCCCCC.O=P([O-])(O)O [N-decyldecan-1-aminium dihydrogen phosphate] | 354.1 ± 3 K | 14.6 ± 0.478 kcal/mol |  |  |  |  |
| CCCCCCCCCC[NH2+]CCCCCCCCCC.O=[N+]([O-])[O-] [N-decyldecan-1-aminium nitrate] | 333.1 ± 3 K | 15.3 ± 0.239 kcal/mol |  |  |  |  |
| CCCCCCCCCCCC[NH2+]CCCCCCCCCCCC.[Br-] [N-dodecyldodecan-1-aminium bromide] | 346.1 ± 3 K | 11.7 ± 0.263 kcal/mol |  |  |  |  |
| CCCCCCCCCCCC[NH2+]CCCCCCCCCCCC.[Cl-] [N-dodecyldodecan-1-aminium chloride] | 338.1 ± 3 K | 11.5 ± 0.239 kcal/mol |  |  |  |  |
| CCCCCCCCCCCC[NH2+]CCCCCCCCCCCC.O=P([O-])(O)O [N-dodecyldodecan-1-aminium dihydrogen phosphate] | 363.1 ± 3 K | 19.8 ± 0.717 kcal/mol | 328.1 ± 3 K |  |  |  |
| CCCCCCCCCCCC[NH2+]CCCCCCCCCCCC.O=S(=O)([O-])O [N-dodecyldodecan-1-aminium hydrogen sulfate] | 373.1 ± 3 K |  | 347.1 ± 3 K | 7.17 ± 0.478 kcal/mol |  |  |
| CCCCCCCCCCCC[NH2+]CCCCCCCCCCCC.[I-] [N-dodecyldodecan-1-aminium iodide] | 338.1 ± 3 K | 9.2 ± 0.239 kcal/mol |  |  |  |  |
| CCCCCCCCCCCC[NH2+]CCCCCCCCCCCC.O=[N+]([O-])[O-] [N-dodecyldodecan-1-aminium nitrate] | 339.1 ± 3 K | 18.4 ± 0.239 kcal/mol |  |  |  |  |
| CCCCCCCCCCCC[NH2+]CCCCCCCCCCCC.[O-][Cl+3]([O-])([O-])[O-] [N-dodecyldodecan-1-aminium perchlorate] | 335.1 ± 3 K | 17.2 ± 0.478 kcal/mol |  |  |  |  |
| CCCCCCCCCCCCCCCCCC[NH2+]CCCCCCCCCCCCCCCCCC.[Br-] [N-octadecyloctadecan-1-aminium bromide] | 371.15 ± 3 K | 19.4 ± 0.478 kcal/mol |  |  |  |  |
| CCCCCCCCCCCCCCCCCC[NH2+]CCCCCCCCCCCCCCCCCC.[Cl-] [N-octadecyloctadecan-1-aminium chloride] | 364.35 ± 3 K | 23.2 ± 0.478 kcal/mol |  |  |  |  |
| CCCCCCCCCCCCCCCCCC[NH2+]CCCCCCCCCCCCCCCCCC.O=S(=O)([O-])O [N-octadecyloctadecan-1-aminium hydrogen sulfate] | 355.1 ± 3 K |  | 343.1 ± 3 K | 26.1 ± 0.717 kcal/mol |  |  |
| CCCCCCCCCCCCCCCCCC[NH2+]CCCCCCCCCCCCCCCCCC.[I-] [N-octadecyloctadecan-1-aminium iodide] | 366.15 ± 3 K | 17.9 ± 0.717 kcal/mol |  |  |  |  |
| CCCCCCCCCCCCCCCCCC[NH2+]CCCCCCCCCCCCCCCCCC.O=[N+]([O-])[O-] [N-octadecyloctadecan-1-aminium nitrate] | 366.65 ± 3 K | 26.1 ± 0.717 kcal/mol |  |  |  |  |
| CCCCCCCCCCCCCCCCCC[NH2+]CCCCCCCCCCCCCCCCCC.[O-][Cl+3]([O-])([O-])[O-] [N-octadecyloctadecan-1-aminium perchlorate] | 361.25 ± 3 K | 27.49 ± 0.239 kcal/mol |  |  |  |  |
| CCCCCCCCNCCCCCCCC.Cl [N-octyl-1-octaminium hydrochloride] | 294.1 ± 3 K | 8.84 ± 0.239 kcal/mol |  |  |  |  |
| CCCCCCCC[NH2+]CCCCCCCC.[Br-] [N-octyloctan-1-aminium bromide] | 303.1 ± 5 K | 5.98 ± 0.239 kcal/mol |  |  |  |  |
| CCCCCCCC[NH2+]CCCCCCCC.O=P([O-])(O)O [N-octyloctan-1-aminium dihydrogen phosphate] | 333.1 ± 3 K |  |  |  |  |  |
| CCCCCCCC[NH2+]CCCCCCCC.[I-] [N-octyloctan-1-aminium iodide] | 271.1 ± 1 K |  | 267.1 ± 1 K | 5.02 ± 0.239 kcal/mol |  |  |
| CCCCCCCC[NH2+]CCCCCCCC.O=[N+]([O-])[O-] [N-octyloctan-1-aminium nitrate] | 318.1 ± 3 K | 12.8 ± 0.239 kcal/mol |  |  |  |  |
| CCCCCCCC[NH2+]CCCCCCCC.[O-][Cl+3]([O-])([O-])[O-] [N-octyloctan-1-aminium perchlorate] | 296.1 ± 10 K | 8.84 ± 0.478 kcal/mol |  |  |  |  |
| CCCCCCCCCC[NH2+]CCCCCCCCCC.[Cl-] [didecylammonium chloride] | 321.1 ± 3 K | 9.56 ± 0.239 kcal/mol |  |  |  |  |
| CCCCCCCC[NH2+]CCCCCCCC.O=S(=O)([O-])O [dioctylammonium hydrogen sulfate] | 463.15 ± 3 K | 1.15 ± 0.717 kcal/mol | 371.1 ± 3 K | 0.335 ± 0.0717 kcal/mol | 289.1 ± 3 K | 0.98 ± 0.0478 kcal/mol |
